Values quoted from earlier work in patent publication US11857520B2, “Therapeutic composition of intranasal lidocaine” (Nortic Holdings Inc., priority 2018, dated 2024).

Test system: not given
Details: generally recognized

Compound	Maximum dose [mg/kg]	duration of action [h]
CCN(CC)CCOC(=O)c1ccc(N)cc1Cl [chloroprocaine]	12	
CCCN1CCCC[C@H]1C(=O)Nc1c(C)cccc1C [ropivacaine]	3	
CCCCN1CCCCC1C(=O)Nc1c(C)cccc1C (centres unmarked) [bupivacaine]	3	
Cc1cccc(C)c1NC(=O)C1CCCCN1C (centres unmarked) [mepivacaine]	4.5	1 to 2
CCN(CC)CCOC(=O)c1ccc(N)cc1 [procaine]	12	
CCN(CC)CC(=O)Nc1c(C)cccc1C [lidocaine]	4.5	0.75 to 1.5
CCCNC(C)C(=O)Nc1ccccc1C (centres unmarked) [prilocaine]	8	
COC(=O)[C@H]1[C@@H](OC(=O)c2ccccc2)C[C@@H]2CC[C@H]1N2C [cocaine]	3	
CCCCNc1ccc(C(=O)OCCN(C)C)cc1 [tetracaine]	3	1.5 to 6

Test system: skin
Details: HSDB database

Compound	level irritating to the skin [%]
OCc1ccccc1 [benzyl alcohol]	≥ 3

Test system: human retinal pigment epithelial cell
Details: 0.225 mg/ml in triamcinolone acetonide (TA) following intravitreal injection, at 2 hours

Compound	effect on human retinal pigment epithelial cells
OCc1ccccc1 [benzyl alcohol]	caused ultrastructural damage and impaired human retinal pigment epithelial cell function
